The values below come from ChEMBL document CHEMBL4049401, “Three-component, one-pot synthesis of anthranilamide Schiff bases bearing 4-aminoquinoline moiety as Mycobacterium tuberculosis gyrase inhibitors” (Bioorg Med Chem Lett, 2017).

By MIC is commonly meant the smallest concentration in the dilution series that meets the test's criterion for growth inhibition. The logP is the decadic logarithm of the partition coefficient of the neutral form, usually between octanol and water.

≈ marks a conversion by molar mass, not a printed value.

Data set [1] in a line: Cytotoxicity against African green monkey Vero cells assessed as cell viability at 100 uM by MTT assay relative to control. Format: cell-based. Particulars: chlorocebus sabaeus, read-out: Activity. On the technique in general: Tetrazolium dyes change colour on reduction, which living cells bring about.
Data set [2] deals with Mycobacterium tuberculosis. Kind of data set: Antimycobacterial activity against Mycobacterium tuberculosis H37Rv ATCC 27294 after 5 days by microplate alamar blue assay. The format is functional. Particulars: H37Rv ATCC 27294, 120 h. (In general: Alamar Blue is a resazurin reagent that responds to reducing activity.)
Data set [3] is described as follows: n-octanol/water partition coefficient, log P of the compound. Format: physicochemical.

For the compound `O=C(NNc1ccnc2cc(Cl)ccc12)c1ccccc1/N=C/c1ccc(Cl)cc1Cl`, in data set [1], the viability at 100 µM is 87.6%. The MIC in data set [2] worked out at 6.25 µM (≈ 2.94 µg/mL). Also, the log partition coefficient (logP) in data set [3] is 6.22.

Regarding `CN(C)c1ccc(/C=N/c2ccccc2C(=O)NNc2ccnc3cc(Cl)ccc23)cc1`, the viability at 100 µM in data set [1] was 88.8%. For the same compound, 3.12 µM (≈ 1.39 µg/mL) was the least that counted as inhibitory in data set [2] (MIC). In data set [3], this compound came in with a logP of 5.03.

`O=C(NNc1ccnc2cc(Cl)ccc12)c1ccccc1/N=C/C=C/c1ccccc1`: in data set [1], the viability at 100 µM is 90.2%. The compound also came in with a minimal inhibitory concentration (MIC) in data set [2] of 3.12 µM (≈ 1.33 µg/mL). The compound also returned a logP in data set [3] of 5.54.

For `COc1cc(/C=N/c2ccccc2C(=O)NNc2ccnc3cc(Cl)ccc23)cc(OC)c1OC`, the viability at 100 µM in data set [1] is 89.4%. The compound further gave an MIC in data set [2] of 6.25 µM (≈ 3.07 µg/mL). For the same compound, in data set [3], the logP turned out to be 4.94.

Take `Cc1ccc(/C=N/c2ccccc2C(=O)NNc2ccnc3cc(Cl)ccc23)cc1`: in data set [1], the viability at 100 µM turned out to be 87.1%. Also, the minimal inhibitory concentration (MIC) in data set [2] is 0.78 µM (≈ 0.324 µg/mL). In addition, the logP in data set [3] was 5.31.

On to `O=C(NNc1ccnc2cc(Cl)ccc12)c1ccccc1/N=C/c1cc2ccccc2nc1Cl`, for which, in data set [1], the viability at 100 µM stood at 94.3%. In data set [2], this compound showed a minimal inhibitory concentration (MIC) of 25 µM (≈ 12.2 µg/mL). Moreover, in data set [3], the logP was 6.

As for `O=C(NNc1ccnc2cc(Cl)ccc12)c1ccccc1/N=C/c1ccc(F)cc1`, the viability at 100 µM in data set [1] turned out to be 90.7%. The compound further had an MIC in data set [2] of 6.25 µM (≈ 2.62 µg/mL). This compound registered a logP in data set [3] of 5.18.

Turning to `O=C(NNc1ccnc2cc(Cl)ccc12)c1ccccc1/N=C/c1cccs1`, the viability at 100 µM in data set [1] stood at 89.5%. Inhibition of growth in data set [2] (MIC) required 6.25 µM (≈ 2.54 µg/mL). Also, the log partition coefficient (logP) in data set [3] was found to be 4.78.

Turning to `O=C(NNc1ccnc2cc(Cl)ccc12)c1ccccc1/N=C/c1ccc(Cl)c(Cl)c1`, in data set [1], the viability at 100 µM is 90.2%. The compound further yielded an MIC in data set [2] of 25 µM (≈ 11.7 µg/mL). In data set [3], this compound displayed a lipophilicity (logP) of 6.22.

`COc1cc(/C=N/c2ccccc2C(=O)NNc2ccnc3cc(Cl)ccc23)ccc1Oc1ccnc2cc(Cl)ccc12`: the viability at 100 µM in data set [1] is 89.5%. Also, the minimum inhibitory concentration (MIC) in data set [2] is 3.12 µM (≈ 1.9 µg/mL). Besides, the logP in data set [3] stood at 7.74.

Consider `O=C(NNc1ccnc2cc(Cl)ccc12)c1ccccc1/N=C/c1ccc([N+](=O)[O-])cc1`, for which the viability at 100 µM in data set [1] amounted to 88.6%. In data set [2], the MIC was determined as 25 µM (≈ 11.1 µg/mL). Besides, the log partition coefficient (logP) in data set [3] came to 4.58.

For `O=C(NNc1ccnc2cc(Cl)ccc12)c1ccccc1/N=C/c1ccc(Cl)cc1`, the viability at 100 µM in data set [1] was 86.7%. Besides, in data set [2], the MIC was 3.12 µM (≈ 1.36 µg/mL). In addition, the lipophilicity (logP) in data set [3] was found to be 5.62.

Turning to `COc1ccc(/C=N/c2ccccc2C(=O)NNc2ccnc3cc(Cl)ccc23)cc1`, the viability at 100 µM in data set [1] turned out to be 88.9%. In data set [2], this compound yielded an MIC of 1.56 µM (≈ 0.672 µg/mL). The same compound had a log partition coefficient (logP) in data set [3] of 5.

For the compound `O=C(NNc1ccnc2cc(Cl)ccc12)c1ccccc1/N=C/c1cccc(Cl)c1Cl`, in data set [1], the viability at 100 µM is 89.1%. It took 6.25 µM (≈ 2.94 µg/mL) to inhibit growth in data set [2] (MIC). The compound also gave a lipophilicity (logP) in data set [3] of 6.1.

With `N#Cc1ccc(/C=N/c2ccccc2C(=O)NNc2ccnc3cc(Cl)ccc23)cc1`, the viability at 100 µM in data set [1] is 87.2%. Moreover, inhibition of growth in data set [2] (MIC) required 25 µM (≈ 10.6 µg/mL). The logP in data set [3] came to 4.83.

For `COc1ccc(/C=N/c2ccccc2C(=O)NNc2ccnc3cc(Cl)ccc23)cc1OC`, the viability at 100 µM in data set [1] was 89.2%. The MIC in data set [2] worked out at 6.25 µM (≈ 2.88 µg/mL). The logP in data set [3] is 4.97.

In the case of `O=C(NNc1ccnc2cc(Cl)ccc12)c1ccccc1/N=C/c1ccc(Br)cc1`, the viability at 100 µM in data set [1] came out at 88.5%. This compound had a minimum inhibitory concentration (MIC) in data set [2] of 6.25 µM (≈ 3 µg/mL). The compound further displayed a logP in data set [3] of 5.76.

Consider `O=C(NNc1ccnc2cc(Cl)ccc12)c1ccccc1/N=C/c1ccncc1`, for which, in data set [1], the viability at 100 µM came out at 85.7%. In data set [2], this compound registered an MIC of 25 µM (≈ 10 µg/mL). Moreover, the logP in data set [3] is 3.86.

Turning to `O=C(NNc1ccnc2cc(Cl)ccc12)c1ccccc1/N=C/c1cc2ccccc2[nH]c1=O`, the viability at 100 µM in data set [1] is 91.1%. In addition, the lowest concentration to inhibit growth in data set [2] (MIC) was 25 µM (≈ 11.7 µg/mL). Further, the logP in data set [3] turned out to be 4.65.

As to `O=C(NNc1ccnc2cc(Cl)ccc12)c1ccccc1/N=C/c1ccc(O)cc1`, the viability at 100 µM in data set [1] turned out to be 90.1%. This compound also registered an MIC in data set [2] of 25 µM (≈ 10.4 µg/mL). In data set [3], this compound registered a logP of 4.65.

As to `O=C(NNc1ccnc2cc(Cl)ccc12)c1ccccc1/N=C/c1ccccc1Cl`, the viability at 100 µM in data set [1] was 88.5%. Besides, the MIC in data set [2] was 25 µM (≈ 10.9 µg/mL). In data set [3], the logP came out at 5.5.

Compound `O=C(O)c1cn(C2CC2)c2cc(N3CCNCC3)c(F)cc2c1=O` [CIPROFLOXACIN] returned a minimum inhibitory concentration (MIC) in data set [2] of 12.5 µM (≈ 4.14 µg/mL).

The compound `NC(=O)c1cnccn1` [PYRAZINAMIDE] registered an MIC in data set [2] of 3.12 µM (≈ 0.384 µg/mL). Moreover, the logP in data set [3] is -0.71.
